This experiment concerns CD2F1 mice, L1210 leukemia ip, survival T/C. The experiment can be described thus: NCI In Vivo Anticancer Drug Screen. Data for tumor model L1210 Leukemia (intraperitoneal) in CD2F1 (CDF1) mice. The note with it: higher = longer survival. An outline of the steps:
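Activity against a transplanted murine tumor was judged by comparing the compound group with a vehicle group. The outcome in the treated animals was divided by that in the controls.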

The mark [1] stands for this setting: endpoint: mean survival time, dose: 100.0 mg/kg/injection, schedule: Q01DX009 (ip), vehicle: saline with Tween-80.
The mark [2] stands for this setting: endpoint: mean survival time, dose: 100.0 mg/kg/injection, schedule: Q04DX003 (ip), vehicle: saline with Tween-80.
[3] abbreviates: endpoint: mean survival time, dose: 200.0 mg/kg/injection, schedule: Q01DX009 (ip), vehicle: saline with Tween-80.
[4] abbreviates: endpoint: mean survival time, dose: 12.5 mg/kg/injection, schedule: Q01DX009 (ip), vehicle: saline with Tween-80.
The mark [5] stands for this setting: endpoint: mean survival time, dose: 50.0 mg/kg/injection, schedule: Q01DX001 (ip), vehicle: saline with Tween-80.
The mark [6] stands for this setting: endpoint: mean survival time, dose: 100.0 mg/kg/injection, schedule: Q01DX001 (ip), vehicle: saline with Tween-80.
Where [7] appears, read: endpoint: mean survival time, dose: 25.0 mg/kg/injection, schedule: Q01DX009 (ip), vehicle: saline with Tween-80.
Where [8] appears, read: endpoint: mean survival time, dose: 50.0 mg/kg/injection, schedule: Q01DX009 (ip), vehicle: saline with Tween-80.
Setting [9] is: endpoint: mean survival time, dose: 100.0 mg/kg/injection, schedule: Q04DX003 (ip), vehicle: saline.
Setting [10] is: endpoint: mean survival time, dose: 200.0 mg/kg/injection, schedule: Q04DX003 (ip), vehicle: saline.
The mark [11] stands for this setting: endpoint: mean survival time, dose: 400.0 mg/kg/injection, schedule: Q04DX003 (ip), vehicle: saline.

Each structure is given as a SMILES string. Several values for one entry are separate records, joined by “and”; a condition that tells them apart may be missing. Equal entries are not always repeated. Inconclusive results and toxic doses are left out.

`COc1cccc2c1C(=O)c1c(O)c3c(c(O)c1C2=O)C[C@@](O)(C(=O)CO)C[C@@H]3OC1CC(N)C(OC)C(C)O1` (stereo not given in full): the T/C is, setting by setting: (endpoint: mean survival time, dose: 0.54 mg/kg/injection, schedule: Q01DX009 (ip), vehicle: saline) 159 % of control; (endpoint: mean survival time, dose: 0.65 mg/kg/injection, schedule: Q01DX009 (ip), vehicle: saline) 207 % of control; (endpoint: mean survival time, dose: 0.9 mg/kg/injection, schedule: Q01DX009 (ip), vehicle: saline) 229 % of control; (endpoint: mean survival time, dose: 1.08 mg/kg/injection, schedule: Q01DX009 (ip), vehicle: saline) 319 % of control; (endpoint: mean survival time, dose: 1.3 mg/kg/injection, schedule: Q01DX001 (ip), vehicle: saline) 161 % of control; (endpoint: mean survival time, dose: 1.8 mg/kg/injection, schedule: Q01DX009 (ip), vehicle: saline) 250 % of control. Further, the T/C reads like this: (endpoint: mean survival time, dose: 2.16 mg/kg/injection, schedule: Q01DX001 (ip), vehicle: saline) 161 % of control; (endpoint: mean survival time, dose: 3.0 mg/kg/injection, schedule: Q01DX009 (ip), vehicle: saline) 93 % of control; (endpoint: mean survival time, dose: 3.6 mg/kg/injection, schedule: Q01DX001 (ip), vehicle: saline) 168 % of control and 170 % of control; (endpoint: mean survival time, dose: 6.0 mg/kg/injection, schedule: Q01DX001 (ip), vehicle: saline) 189 % of control and 353 % of control; (endpoint: mean survival time, dose: 10.0 mg/kg/injection, schedule: Q01DX001 (ip), vehicle: saline) 187 % of control and 260 % of control.
Consider `O=[N+]([O-])c1ccc2ccccc2c1I`, for which the T/C is 92 % of control under setting [1]; 87 % of control under setting [2]; 98 % of control under setting [3]; 93 % of control (endpoint: mean survival time, dose: 200.0 mg/kg/injection, schedule: Q04DX003 (ip), vehicle: saline with Tween-80); 90 % of control (endpoint: mean survival time, dose: 400.0 mg/kg/injection, schedule: Q01DX009 (ip), vehicle: saline with Tween-80); 92 % of control (endpoint: mean survival time, dose: 400.0 mg/kg/injection, schedule: Q04DX003 (ip), vehicle: saline with Tween-80).
As to `O=[N+]([O-])/C=C\c1cc2c3c(c1)CCCN3CCC2`, the T/C by setting is: (endpoint: mean survival time, dose: 3.13 mg/kg/injection, schedule: Q01DX009 (ip), vehicle: saline with Tween-80) 105 % of control; (endpoint: mean survival time, dose: 6.25 mg/kg/injection, schedule: Q01DX009 (ip), vehicle: saline with Tween-80) 97 % of control; under setting [4], 100 % of control; under setting [5], 105 % of control; under setting [6], 103 % of control.
In the case of `OCC1OC(n2ccn(C3OC(CO)C(O)C3O)c2=S)C(O)C1O` (stereo not given), the T/C runs as follows: (endpoint: mean survival time, dose: 12.5 mg/kg/injection, schedule: Q01DX005 (ip), vehicle: water) 98 % of control; (endpoint: mean survival time, dose: 25.0 mg/kg/injection, schedule: Q01DX005 (ip), vehicle: water) 106 % of control; (endpoint: mean survival time, dose: 50.0 mg/kg/injection, schedule: Q01DX005 (ip), vehicle: water) 96 % of control; (endpoint: mean survival time, dose: 100.0 mg/kg/injection, schedule: Q01DX005 (ip), vehicle: water) 98 % of control; (endpoint: mean survival time, dose: 200.0 mg/kg/injection, schedule: Q01DX005 (ip), vehicle: water) 102 % of control.
Regarding `Cc1ccc(NC(=O)N(CCCl)N=O)cc1C`, the T/C was 115 % of control (endpoint: mean survival time, dose: 1.6 mg/kg/injection, schedule: Q01DX001 (ip), vehicle: other); 188 % of control (endpoint: mean survival time, dose: 5.7 mg/kg/injection, schedule: Q01DX001 (ip), vehicle: other); 190 % of control (endpoint: mean survival time, dose: 8.6 mg/kg/injection, schedule: Q01DX001 (ip), vehicle: other); 204 % of control (endpoint: mean survival time, dose: 13.0 mg/kg/injection, schedule: Q01DX001 (ip), vehicle: other); 309 % of control (endpoint: mean survival time, dose: 20.0 mg/kg/injection, schedule: Q01DX001 (ip), vehicle: other); 191 % of control (endpoint: mean survival time, dose: 29.0 mg/kg/injection, schedule: Q01DX001 (ip), vehicle: other).
Take `CC(=O)Nc1ccc(Nc2ccc(C(=C3C=CC(=[N+](C)CCC#N)C=C3)c3ccc(N(C)CCC#N)cc3)cc2)cc1`: the T/C is 107 % of control (endpoint: mean survival time, dose: 12.0 mg/kg/injection, schedule: Q01DX009 (ip), vehicle: saline with Tween-80); 107 % of control under setting [4]; 105 % of control and 109 % of control under setting [7]; 106 % of control (endpoint: mean survival time, dose: 200.0 mg/kg/injection, schedule: Q04DX002 (ip), vehicle: saline with Tween-80).
Consider `C1CC[N-]CC1.CC(=N\O)/C(C)=N/O.CC(=N\O)/C(C)=N/O.[CH2-]CCN1CCOCC1.[Co+2]`, for which the T/C under setting [7] is 105 % of control; the T/C (endpoint: mean survival time, dose: 25.0 mg/kg/injection, schedule: Q04DX003 (ip), vehicle: saline with Tween-80) was 103 % of control; the T/C under setting [8] was 105 % of control; the T/C (endpoint: mean survival time, dose: 50.0 mg/kg/injection, schedule: Q04DX003 (ip), vehicle: saline with Tween-80) was 106 % of control; the T/C under setting [2] is 112 % of control.
For `COC(=O)c1ccc(N=NN(C)COC(C)=O)cc1`, the T/C by setting is: (endpoint: median survival time, dose: 15.0 mg/kg/injection, schedule: Q01DX005 (ip), vehicle: Klucel (hydroxypropylcellulose) (HPC)) 109 % of control; (endpoint: median survival time, dose: 30.0 mg/kg/injection, schedule: Q01DX005 (ip), vehicle: Klucel (hydroxypropylcellulose) (HPC)) 113 % of control; (endpoint: median survival time, dose: 60.0 mg/kg/injection, schedule: Q01DX005 (ip), vehicle: Klucel (hydroxypropylcellulose) (HPC)) 114 % of control; (endpoint: median survival time, dose: 240.0 mg/kg/injection, schedule: Q01DX005 (ip), vehicle: Klucel (hydroxypropylcellulose) (HPC)) 182 % of control.
`CO[C@@]12[C@@H]3N[C@@H]3CN1C1=C(C(=O)C(NCC3CCCO3)=C(C)C1=O)[C@@H]2COC(N)=O` (stereo not given in full): the T/C was 111 % of control (endpoint: mean survival time, dose: 1.5 mg/kg/injection, schedule: Q01DX001 (ip), vehicle: distilled water + Tween-80); 114 % of control and 116 % of control (endpoint: mean survival time, dose: 3.0 mg/kg/injection, schedule: Q01DX001 (ip), vehicle: distilled water + Tween-80); 121 % of control (endpoint: mean survival time, dose: 6.0 mg/kg/injection, schedule: Q01DX001 (ip), vehicle: distilled water + Tween-80); 158 % of control (endpoint: mean survival time, dose: 36.0 mg/kg/injection, schedule: Q01DX001 (ip), vehicle: distilled water + Tween-80).
For `Cc1ccc2c(c1)C1(SC(C)C(=O)N1c1ccc(Cl)cc1)C(=O)N2` (stereo not given), the T/C was 107 % of control (endpoint: median survival time, dose: 25.0 mg/kg/injection, schedule: Q01DX005 (ip), vehicle: saline with Tween-80); 113 % of control (endpoint: median survival time, dose: 50.0 mg/kg/injection, schedule: Q01DX005 (ip), vehicle: saline with Tween-80); 116 % of control (endpoint: median survival time, dose: 100.0 mg/kg/injection, schedule: Q01DX005 (ip), vehicle: saline with Tween-80); 116 % of control (endpoint: median survival time, dose: 200.0 mg/kg/injection, schedule: Q01DX005 (ip), vehicle: saline with Tween-80); 123 % of control (endpoint: median survival time, dose: 400.0 mg/kg/injection, schedule: Q01DX005 (ip), vehicle: saline with Tween-80).
For the compound `CC1=C(N2CC2)C(=O)C2=C(C1=O)N1CC3C(N3C)C1(O)C2COC(N)=O` (stereo not given), the T/C is 122 % of control (endpoint: mean survival time, dose: 3.5 mg/kg/injection, schedule: Q01DX001 (ip), vehicle: carboxymethylcellulose (CMC)); 151 % of control (endpoint: mean survival time, dose: 5.25 mg/kg/injection, schedule: Q01DX001 (ip), vehicle: carboxymethylcellulose (CMC)); 119 % of control (endpoint: mean survival time, dose: 7.0 mg/kg/injection, schedule: Q01DX001 (ip), vehicle: carboxymethylcellulose (CMC)).
Turning to `CC1CCCC/C1=N/O` (stereo not given), the T/C reads like this: under setting [9], 101 % of control; under setting [10], 101 % of control; under setting [11], 101 % of control.
For `CSC/C(=N\Nc1ccc([N+](=O)[O-])cc1[N+](=O)[O-])c1ccccc1`, the T/C is 98 % of control under setting [5]; 93 % of control under setting [6]; 90 % of control (endpoint: mean survival time, dose: 200.0 mg/kg/injection, schedule: Q01DX001 (ip), vehicle: saline with Tween-80).
On to `CC(C(=O)c1ccccc1)N(C)c1ccccc1` (stereo not given), for which the T/C by setting is: under setting [9], 107 % of control; under setting [10], 100 % of control; under setting [11], 102 % of control.
For the compound `O=C(O)CC1CCC1CC(=O)O` (stereo not given), the T/C runs as follows: under setting [8], 90 % of control; under setting [1], 96 % of control and 100 % of control; under setting [3], 96 % of control and 103 % of control.
